Patent publication US8735622B2, “Histone demethylase inhibitors and methods for using the same” (The Regents of the University of Colorado, a body corporate, priority 2011, dated 2014)
Entries after “also recorded” stand apart in the source; their conditions may differ.

Columns and labels:
HDACs = test: Histone deacetylases (HDACs) enzyme inhibition assay (Fluor de Lys); type: biochemical; conditions: in vitro
Procedure: The enzyme activity assay for HDAC was carried out using Fluor de Lys Fluorescent Assay System (BML-AK500, Enzo Life Sciences Inc, NY USA). The assay was performed as the manufactory guide in white 384-well plates. Time resolved fluorescence was measured on a Beckman Coulter DTX 880 plate reader with 250 ms delay, excitation at 360 nm, and emission at 530 nm.

[1] = tested on: prolyl hydroxylases (PHDs); test: Cellular HIF-1α level (prolyl hydroxylase specificity) in HeLa cells; type: cell-based, human; conditions: 24 hours, methylstat 5, 10, 15 μM
From the text: To assess the specificity of methylstat in vivo, another iron(II)- and α-ketoglutarate-dependent dioxygenases, prolyl hydroxylases (PHDs), was examined. PHDs have been reported to regulate normoxic inactivation of hypoxia-inducible factors (HIFs) by hydroxylating specific prolyl residues of HIFs. […] DMOG and DFO have been used to mimic hypoxia conditions by inhibiting PHDs in vivo. […] Similar results were also observed in HeLa cells (see FIG. 7).
(§1) Total lysates of cells were generated from the cells lysed in CelLytic M Cell Lysis (Sigma) with protease inhibitor cocktail (Sigma), mixed with 2×LSB buffer (100 mM Tris-HCl pH 6.8, 200 mM DTT, 4% SDS, 20% glycerol and 0.2% bromophenol blue) and boiled for 5 min before SDS-PAGE. BCA assay (Thermo) was applied for protein qualification.

[2] = tested on: histone methylation marks in KYSE150 cells; test: Western blotting of histone methylation marks in KYSE150 cells; type: cell-based, human; conditions: KYSE150 cells, 5, 10, 15 μM, 48 hours
Procedure: Next, the cellular effects of methylstat were evaluated on a variety of histone methylation marks in KYSE150 cells. DMOG and DFO were used as positive controls, since they are known cell-active inhibitors of iron (II)- and α-ketoglutarate-dependent dioxygenases.
as §1
Histone extraction was generated from the cells lysed in Triton Extraction Buffer (TEB: PBS containing 0.5% Triton X 100 (v/v), 2 mM phenylmethylsulfonyl fluoride (PMSF), 0.02% (w/v) NaN3) at the density of 10^7 cells/mL. 0.2 N HCl was used to extract histone over night at 4° C.

KYSE150 cells = test: Cell viability / growth inhibition assay (CellTiter-Glo); type: cell-based, human; conditions: 48 hours
From the text: To examine the cellular activity of the compounds of the invention, oesophageal carcinoma cell line KYSE150 was used in a growth inhibition assay because KYSE150 cells have been reported to contain several copies of the GASC1 gene, and it has been reported that inhibition of GASC1 expression using short hairpin RNA causes a significant reduction of proliferation in KYSE150 cells. […] Without being bound by any theory, it is believed that this low activity in cells was possibly due to the poor cellular uptake of the zwitterion form in which it typically exists under physiological conditions. Therefore, its methyl ester prodrug 2 (FIG. 1a), called methylstat was tested.
To screen and validate the cellular toxicity of compounds, a cell viability assay was carried out using CellTiter-Glo luminescent cell viability assay kit (Promega, Madison USA). KYSE150 cells were seeded on blank-walled 384-well plates with KYSE medium at densities of 1,000 cells/well. The medium volume for each well was 40 μL. Cells were incubated at 37° C. in 5% CO2/95% air for 24 hours. The medium was removed from each well and replaced with 38 μL, of warmed fresh medium and 2 μL, compound solution in 2% DMSO/98% H2O. The compounds were added into medium at different concentrations with the final concentration of DMSO as 0.1%. After incubation at 37° C. with 5% CO2/95% air for another 48 hours, the plates were equilibrated to room temperature for 30 minutes. 40 μL, of CellTiter-Glo reagent (Promega, Madison USA) was added to each well and mixed for 2 minutes on an orbital shaker. The plate was incubated at room temperature for another 10 minutes to stabilize luminescent signal. The luminescence of each sample was measured in a plate-reading illuminometer (Beckman Coulter DTX 880) with parameters of 1-minute lag time and 0.1 second/well read time. The experiments were performed in triplicate and repeated on two separately initiated cultures.

[3] = tested on: histone methylation marks in MCF7 cells; test: Western blotting of histone methylation marks in MCF7 cells; type: cell-based, human; conditions: MCF7 cells, 5, 10, 15 μM, 48 hours

With COC(=O)/C=C/C(=O)N(O)CCCCNCc1ccc(COC(=O)Nc2cccc3ccccc23)cc1 [methylstat] the “inhibition of histone deacetylases (HDACs)” value (HDACs) was “did not significantly inhibit”, the “cellular HIF-1α levels / prolyl hydroxylase inhibition” value [1] was “did not significantly inhibit prolyl hydroxylases” and the “hypermethylation of histone proteins (Western blot)” value [2] was “induced hypermethylation of lysine residues; also recorded: induced hypermethylations of histone proteins in a concentration-dependent manner”. For the same compound, the “KYSE150 cell growth inhibition” value (KYSE150 cells; compound 1 at up to 100 μM) was “inhibits KYSE150 cell growth”, the GI50 (KYSE150 cells; Homo sapiens, KYSE-150, KYSE150 cells, read-out: half maximal growth inhibitory concentration (GI50)) was about 5.1 µM and the “hypermethylation of histone proteins (Western blot)” value [3] was “induced concentration-dependent hypermethylation of lysine and arginine residues; also recorded: induced hypermethylations of histone proteins in a concentration-dependent manner”.
